{"source": "PubChem BioAssay AID504461", "about": "(NMMLSC, 2011)", "note": "The source made the active and inactive calls.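 The calls were made as follows: active = compounds whose fitted half-effect concentration on CIT2 GFP level is 33 micromolar or lower; inactive = the rest.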"}
{"test_system": "S. cerevisiae CIT2-GFP strain, flow cytometry GFP, 3 h", "experiment": "CIT2-GFP expression modulators in yeast, SAR follow-up, flow cytometry, KU set 2, dose response (AID 504461)", "conditions": "not given"}
{"smiles": "CNc1nc(N)c(C(=O)c2ccc(C)c(C)c2)c(Nc2cccc(Cl)c2)n1", "EC50": "129 µM (inactive)"}
{"smiles": "CCNc1nc(N)c([N+](=O)[O-])c(Nc2cccc(Cl)c2)n1", "EC50": "73.5 µM (inactive)"}
{"test_system": "not listed separately", "experiment": "CIT2-GFP expression modulators in yeast, SAR follow-up, flow cytometry, KU set 2, dose response (AID 504461)", "conditions": "S. cerevisiae CIT2-GFP strain, flow cytometry GFP, 3 h; at 100 µM (top of the series)"}
{"smiles": "CCNc1nc(NC2CCCCC2)c([N+](=O)[O-])c(N2CCOCC2)n1", "GFP fluorescence (kMESF)": "3.39 kMESF (inactive)"}
{"smiles": "CNc1nc(NC2CCCCC2)c([N+](=O)[O-])c(N2CCOCC2)n1", "GFP fluorescence (kMESF)": "3.39 kMESF (inactive)"}
{"smiles": "CNc1nc(N)c([N+](=O)[O-])c(Nc2ccccc2F)n1", "GFP fluorescence (kMESF)": "4.24 kMESF (inactive)"}
{"smiles": "CNc1nc(N)c([N+](=O)[O-])c(Nc2cccc(Oc3ccccc3)c2)n1", "GFP fluorescence (kMESF)": "3.53 kMESF (inactive)"}
{"smiles": "CNc1nc(NC)c([N+](=O)[O-])c(Nc2cccc(Cl)c2)n1", "GFP fluorescence (kMESF)": "3.32 kMESF (inactive)"}
{"smiles": "CNc1nc(N)c([N+](=O)[O-])c(Nc2cccc(Br)c2)n1", "GFP fluorescence (kMESF)": "5.3 kMESF (inactive)"}
{"smiles": "CNc1nc(N)c([N+](=O)[O-])c(Nc2ccccc2Br)n1", "GFP fluorescence (kMESF)": "3.6 kMESF (inactive)"}
{"smiles": "CNc1nc(N)c([N+](=O)[O-])c(Nc2cccc(OC)c2)n1", "GFP fluorescence (kMESF)": "5.3 kMESF (inactive)"}
{"test_system": "not listed separately", "experiment": "CIT2-GFP expression modulators in yeast, SAR follow-up, flow cytometry, KU set 2, dose response (AID 504461)", "conditions": "S. cerevisiae CIT2-GFP strain, flow cytometry GFP, 3 h; at 300 µM (top of the series)"}
{"smiles": "COc1cccc(-c2cc(Nc3cc(C)[nH]n3)nc(NCc3ccccc3)n2)c1", "GFP fluorescence (kMESF)": "4.64 kMESF (inactive)"}
{"smiles": "CCOC(=O)c1c(N)nc(NC)nc1Nc1cccc(F)c1", "GFP fluorescence (kMESF)": "5.12 kMESF (inactive)"}
{"smiles": "O=[N+]([O-])c1c(NC2CCCCC2)nc(NCc2ccccc2)nc1N1CCOCC1", "GFP fluorescence (kMESF)": "4.5 kMESF (inactive)"}
{"smiles": "CNc1nc(N)cc(Oc2cccc(Cl)c2)n1", "GFP fluorescence (kMESF)": "3.55 kMESF (inactive)"}
{"smiles": "CNc1nc(N)cc(Nc2cccc(Cl)c2)n1", "GFP fluorescence (kMESF)": "4.78 kMESF (inactive)"}
{"smiles": "COc1ccccc1-c1cc(Nc2cc(C)[nH]n2)nc(NCc2ccccc2)n1", "GFP fluorescence (kMESF)": "4.5 kMESF (inactive)"}
{"smiles": "COC(=O)c1cccc(-c2cc(Nc3cc(C)[nH]n3)nc(NCc3ccccc3)n2)c1", "GFP fluorescence (kMESF)": "4.85 kMESF (inactive)"}
{"smiles": "Cc1cc(Nc2cc(-c3ccccc3)nc(NCc3ccccc3)n2)n[nH]1", "GFP fluorescence (kMESF)": "4.23 kMESF (inactive)"}
{"smiles": "Cc1cc(Nc2cc(Nc3ccccc3)nc(NCc3ccccc3)n2)n[nH]1", "GFP fluorescence (kMESF)": "4.57 kMESF (inactive)"}
{"smiles": "CNc1nc(N)cc(Nc2ccccc2F)n1", "GFP fluorescence (kMESF)": "5.53 kMESF (inactive)"}
